Counter-ions that a name gives are not always drawn.
Columns and labels:
human TLR8 = molecular target: T1, human TLR8 (Homo sapiens, UniProt Q9NR97); test: In vitro human TLR8 binding reporter assay (HEK-Blue, NF-kB/AP1-inducible SEAP); format: cell-based; details: HEK-Blue human TLR8 SEAP reporter cells; activity range classes; read-out: TLR8 Agonist EC50
T1 construct: host or cells: human HEK-Blue cells (HEK293-derived) co-expressing TLR8 and an NF-kB/AP1-inducible SEAP reporter
T1 sequence (Q9NR97 27-1041): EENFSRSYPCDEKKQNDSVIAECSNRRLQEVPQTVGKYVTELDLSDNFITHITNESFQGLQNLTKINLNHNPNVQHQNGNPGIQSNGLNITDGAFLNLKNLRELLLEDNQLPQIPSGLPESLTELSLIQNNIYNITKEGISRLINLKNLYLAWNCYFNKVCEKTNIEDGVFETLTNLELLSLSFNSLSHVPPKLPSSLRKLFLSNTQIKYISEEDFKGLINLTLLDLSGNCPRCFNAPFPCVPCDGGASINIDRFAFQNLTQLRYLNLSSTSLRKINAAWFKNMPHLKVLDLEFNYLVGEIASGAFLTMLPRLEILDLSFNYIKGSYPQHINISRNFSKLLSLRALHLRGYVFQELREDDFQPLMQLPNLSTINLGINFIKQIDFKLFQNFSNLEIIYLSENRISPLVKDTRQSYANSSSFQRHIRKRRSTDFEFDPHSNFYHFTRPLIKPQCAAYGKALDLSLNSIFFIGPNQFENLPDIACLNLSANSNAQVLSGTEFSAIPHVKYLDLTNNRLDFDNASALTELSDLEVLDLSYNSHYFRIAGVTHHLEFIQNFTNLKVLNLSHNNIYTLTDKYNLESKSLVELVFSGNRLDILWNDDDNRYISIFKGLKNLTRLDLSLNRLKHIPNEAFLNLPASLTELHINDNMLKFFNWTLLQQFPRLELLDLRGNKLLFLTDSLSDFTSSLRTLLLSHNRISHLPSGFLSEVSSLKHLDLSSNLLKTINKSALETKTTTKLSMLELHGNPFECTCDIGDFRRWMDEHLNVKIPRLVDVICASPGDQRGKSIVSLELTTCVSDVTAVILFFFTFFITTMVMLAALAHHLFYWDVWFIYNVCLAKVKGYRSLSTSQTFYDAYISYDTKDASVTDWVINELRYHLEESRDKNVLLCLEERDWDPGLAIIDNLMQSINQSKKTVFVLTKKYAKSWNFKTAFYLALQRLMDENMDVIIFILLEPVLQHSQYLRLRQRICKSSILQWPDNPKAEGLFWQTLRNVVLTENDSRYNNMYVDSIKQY
Outline: (§1)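 Cells are seeded and grown for 24 h. Compounds or DMSO are then added and incubated 18 h at 37 °C. Quanti-Blue is added, and SEAP is read after thirty minutes. EC50 values are normalized, with RLU from 50 μM reference standard setting 100% Ymax.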

human TLR7 = molecular target: T2, human TLR7 (Homo sapiens, UniProt Q9NYK1); test: In vitro human TLR7 binding reporter assay (HEK-Blue, NF-kB/AP1-inducible SEAP); format: cell-based; details: HEK-Blue human TLR7 SEAP reporter cells; activity range classes; read-out: TLR7 Agonist EC50
T2 construct: host or cells: human HEK-Blue cells (HEK293-derived) co-expressing TLR7 and an NF-kB/AP1-inducible SEAP reporter
T2 sequence (Q9NYK1 27-1049): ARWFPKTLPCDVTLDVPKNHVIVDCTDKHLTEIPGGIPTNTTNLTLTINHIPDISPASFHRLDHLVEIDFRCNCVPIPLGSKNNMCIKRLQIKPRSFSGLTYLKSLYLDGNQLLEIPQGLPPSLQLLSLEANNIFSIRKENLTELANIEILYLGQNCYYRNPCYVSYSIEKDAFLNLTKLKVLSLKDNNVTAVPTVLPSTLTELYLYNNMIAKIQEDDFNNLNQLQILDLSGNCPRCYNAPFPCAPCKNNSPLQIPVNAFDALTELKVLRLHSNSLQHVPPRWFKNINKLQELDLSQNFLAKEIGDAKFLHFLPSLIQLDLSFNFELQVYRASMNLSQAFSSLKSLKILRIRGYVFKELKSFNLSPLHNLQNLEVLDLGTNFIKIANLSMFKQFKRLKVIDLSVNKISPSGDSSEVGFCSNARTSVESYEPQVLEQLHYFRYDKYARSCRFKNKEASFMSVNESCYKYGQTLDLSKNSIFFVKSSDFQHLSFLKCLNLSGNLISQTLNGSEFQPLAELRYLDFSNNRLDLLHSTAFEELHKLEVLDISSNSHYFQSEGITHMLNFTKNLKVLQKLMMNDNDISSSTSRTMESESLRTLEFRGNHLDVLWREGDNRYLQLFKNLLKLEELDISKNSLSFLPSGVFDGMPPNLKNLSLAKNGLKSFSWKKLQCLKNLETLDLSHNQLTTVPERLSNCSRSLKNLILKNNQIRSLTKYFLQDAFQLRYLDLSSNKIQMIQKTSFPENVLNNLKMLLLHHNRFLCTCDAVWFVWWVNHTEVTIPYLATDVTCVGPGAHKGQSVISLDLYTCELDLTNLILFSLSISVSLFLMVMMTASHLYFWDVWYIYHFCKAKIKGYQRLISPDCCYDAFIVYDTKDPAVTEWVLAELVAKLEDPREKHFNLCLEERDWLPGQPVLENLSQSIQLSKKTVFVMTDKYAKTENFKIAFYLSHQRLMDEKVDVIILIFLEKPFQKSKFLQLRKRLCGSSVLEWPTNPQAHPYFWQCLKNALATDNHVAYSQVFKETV
Outline: as §1

[1] = test system: IL-1β production in PMA-differentiated THP-1 cells; test: Measurement of IL-1β production in PMA-differentiated THP-1 cells (ELISA, 4 hours); format: cell-based, human; details: Homo sapiens, THP-1, human IL-1β production, assayed using one or more of the described procedures, read-out: NLRP3 hIL1B IC50
Outline: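 IL-1β released into supernatant was measured by ELISA after a 4-hour compound exposure (final DMSO 1%, concentrations such as 100 down to 0.1 μM). Cells: THP-1 pretreated 24 h with 10 μg/ml PMA, then trypsinized and seeded at 1×10^6/ml in 2% FBS RPMI.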

SMILES | EC50 (human TLR8) | EC50 (human TLR7) | IC50 [1]
Nc1cc(OCCCCO)c2ccc(-c3ccn[nH]3)cc2n1 [Compound 172, 4-((2-amino-7-(1H-pyrazol-5-yl)quinolin-4-yl)oxy)butan-1-ol] | > 100 µM | > 100 µM | 0.41 µM
Nc1cc(NCCCO)c2ccc(-n3cccn3)cc2n1 [Compound 173, 3-((2-amino-7-(1H-pyrazol-1-yl)quinolin-4-yl)amino)propan-1-ol] | > 100 µM | > 100 µM | 0.28 µM
CNC(=O)CCNc1cc(N)nc2cc(-n3cccn3)ccc12 [Compound 174] | > 100 µM | > 100 µM | 0.82 µM
Nc1cc(NCc2cccnc2)c2ccc(-n3cccn3)cc2n1 [Compound 175] | > 100 µM | > 100 µM | 0.97 µM
CC(C)(O)CNc1cc(N)nc2cc(-n3cccn3)ccc12 [Compound 176] | > 100 µM | > 100 µM | 0.7 µM
CC(=O)NCCOc1cc(N)nc2cc(-n3cccn3)ccc12 [Compound 177, N-(2-((2-amino-7-(1H-pyrazol-1-yl)quinolin-4-yl)oxy)ethyl)acetamide] | > 100 µM | > 100 µM | 3.07 µM
Nc1cc(OCCO)c2ccc(-c3ccn[nH]3)cc2n1 [Compound 178, 2-((2-amino-7-(1H-pyrazol-5-yl)quinolin-4-yl)oxy)ethan-1-ol] | > 100 µM | > 100 µM | 0.7 µM
Nc1cc(OCCCO)c2ccc(-c3ccn[nH]3)cc2n1 [Compound 179] | > 100 µM | > 100 µM | 0.78 µM
Nc1cc(OCCCCN2CCS(=O)(=O)CC2)c2ccc(-c3ccn[nH]3)cc2n1 [Compound 180] | > 100 µM | > 100 µM | 9.72 µM
CCCOc1cc(N)nc2cc(-c3ccn[nH]3)ccc12 [Compound 182] | > 100 µM | > 100 µM | 1.14 µM
Nc1cc(OCC(=O)N2CCCC2)c2ccc(-c3ccn[nH]3)cc2n1 [Compound 183] | > 100 µM | > 100 µM | 8.4 µM
CCOCCOc1cc(N)nc2cc(-c3ccn[nH]3)ccc12 [Compound 185] | > 100 µM | > 100 µM | 0.56 µM
Nc1cc(OC2CCOCC2)c2ccc(-c3ccn[nH]3)cc2n1 [Compound 186] | > 100 µM | > 100 µM | 1.08 µM
Nc1cc(OCC2CCOCC2)c2ccc(-c3ccn[nH]3)cc2n1 [Compound 187] | > 100 µM | > 100 µM | 0.85 µM
CC(=O)NCCOc1cc(N)nc2cc(-c3ccn[nH]3)ccc12 [Compound 188] | > 100 µM | > 100 µM | 6.31 µM
Nc1cc(OCc2ccccn2)c2ccc(-c3ccn[nH]3)cc2n1 [Compound 189] | > 100 µM | > 100 µM | 0.39 µM
Nc1cc(OCc2cccnc2)c2ccc(-c3ccn[nH]3)cc2n1 [Compound 190] | > 100 µM | > 100 µM | 0.66 µM

SMILES | EC50 (human TLR8) | EC50 (human TLR7) | IC50 [1]
Nc1cc(O[C@H]2CC[C@H](O)CC2)c2ccc(-c3ccn[nH]3)cc2n1 [Compound 191] | > 100 µM | > 100 µM | 0.63 µM
Nc1cc(OCC2(CO)CC2)c2ccc(-c3ccn[nH]3)cc2n1 [Compound 192] | > 100 µM | > 100 µM | 0.63 µM
COCCCOc1cc(N)nc2cc(-c3ccn[nH]3)ccc12 [Compound 193] | > 100 µM | > 100 µM | 1.69 µM
CC(CO)(CO)COc1cc(N)nc2cc(-c3ccn[nH]3)ccc12 [Compound 194] | > 100 µM | > 100 µM | 2.23 µM
CC(C)(O)CCOc1cc(N)nc2cc(-c3ccn[nH]3)ccc12 [Compound 195] | > 100 µM | > 100 µM | 0.93 µM
Nc1cc(OCCCn2cccn2)c2ccc(-c3ccn[nH]3)cc2n1 [Compound 196] | > 100 µM | > 100 µM | 1.11 µM
Nc1cc(OCCN2CCNC2=O)c2ccc(-c3ccn[nH]3)cc2n1 [Compound 198] | > 100 µM | > 100 µM | 11.4 µM
Nc1cc(O[C@H]2CCNC2=O)c2ccc(-c3ccn[nH]3)cc2n1 [Compound 199] | > 100 µM | > 100 µM | 13.3 µM
CC(=O)NCCCOc1cc(N)nc2cc(-c3ccn[nH]3)ccc12 [Compound 200] | > 100 µM | > 100 µM | 1.89 µM
Nc1cc(OCCn2cccn2)c2ccc(-c3ccn[nH]3)cc2n1 [Compound 201] | > 100 µM | > 100 µM | 5.05 µM
Nc1cc(OC(CO)CO)c2ccc(-c3ccn[nH]3)cc2n1 [Compound 202, 2-((2-amino-7-(1H-pyrazol-5-yl)quinolin-4-yl)oxy)propane-1,3-diol] | > 100 µM | > 100 µM | 1.89 µM
Cc1nc(C(=O)NCCNc2cc(N)nc3cc(-c4ccn[nH]4)ccc23)cs1 [Compound 203, N-(2-((2-amino-7-(1H-pyrazol-5-yl)quinolin-4-yl)amino)ethyl)-2-methylthiazole-4-carboxamide] | > 100 µM | > 100 µM | 0.19 µM
Nc1cc(NCCNC(=O)c2ccccn2)c2ccc(-c3ccn[nH]3)cc2n1 [Compound 204] | > 100 µM | > 100 µM | 0.64 µM
COC(=O)NCCNc1cc(N)nc2cc(-c3ccn[nH]3)ccc12 [Compound 205, methyl (2-((2-amino-7-(1H-pyrazol-5-yl)quinolin-4-yl)amino)ethyl)carbamate] | > 100 µM | > 100 µM | 1.29 µM
CS(=O)(=O)NCCNc1cc(N)nc2cc(-c3ccn[nH]3)ccc12 [Compound 206, N-(2-((2-amino-7-(1H-pyrazol-5-yl)quinolin-4-yl)amino)ethyl)methanesulfonamide] | > 100 µM | > 100 µM | 0.84 µM
CCNC(=O)NCCNc1cc(N)nc2cc(-c3ccn[nH]3)ccc12 [Compound 207, 1-(2-((2-amino-7-(1H-pyrazol-5-yl)quinolin-4-yl)amino)ethyl)-3-ethylurea, TFA] | > 100 µM | > 100 µM | 1.07 µM

Reference: US12171756B2, “NLRP3 modulators” (Innate Tumor Immunity, Inc., priority 2017, dated 2024)
